Experimental data: patent US11993579B1, “3-(1-(3-(dimethylamino)propyl)-4,5-diphenyl-1h-imidazol-2-yl)pyridin-4-ol as an anti-microbial compound” (KING FAISAL UNIVERSITY, priority 2023, dated 2024)

Legend:
[1] = test system: E. Coli; experiment: Anti-microbial activity by agar dilution, E. Coli; assay type: cell-based; conditions: after 10, 20, 40, and 60 min at all dilutions 1:100, 1:200, 1:400, 1:800
Description: (§1) The antibacterial properties of the synthesized compounds were studied by the method of agar dilution. Test solutions of each compound was prepared in a concentration of 1% using dimethylformamide as a solvent. Then the test solutions were diluted in a physiological solution to obtain the final experimental dilutions of 1:100, 1:200, 1:400, and 1:800. The effect of these substances was compared with furacillin in a controllable study. The testing microbes used were gram positive bacteria St. Aereus, gram negative bacteria E. Coli, and Ps. aeruginosa and Candida albicans fungi. The experiments used for this survey were a meat-pentonlu agar (EPA) for cultivation of bacteria and a Saburo environment for fungi. Each experiment used 1 mL of test solution on each plate for 500 min. Next, 2 drops of emulsified test solution with microbes feel were added. All experimental samples were taken from the agar after 10, 40, 60 minutes in the environment on the basis of Patrk planted. Bacteria were cultivated at a temperature of 37° C. for 1 day and the mushroom was kept in a thermostat for […] at a temperature of 28° C. Then results were checked.

[2] = test system: Ps. Aeroqonaza; experiment: Anti-microbial activity by agar dilution, Ps. Aeroqonaza; assay type: cell-based, Ps. aeruginosa; conditions: after 10, 20, 40, and 60 min at all dilutions 1:100, 1:200, 1:400, 1:800
Description: as §1

[3] = test system: Candida albicans; experiment: Anti-microbial activity by agar dilution, Candida albicans; assay type: cell-based; conditions: after 10, 20, 40, and 60 min at all dilutions 1:100, 1:200, 1:400, 1:800
Description: as §1

[4] = test system: St. Aereus; experiment: Anti-microbial activity by agar dilution, St. Aereus; assay type: cell-based; conditions: after 10, 20, 40, and 60 min at all dilutions 1:100, 1:200, 1:400, 1:800
Description: as §1

Which melting point does the source give for `CN(C)CCCn1c(-c2cnccc2O)nc(-c2ccccc2)c1-c1ccccc1` [3-(1-(3-(dimethylamino)propyl)-4,5-diphenyl-1H-imidazol-2-yl)pyridin-4-ol] here?
The melting point was 137 to 139 °C.

What about the “inhibition activity, E. Coli (in words)” value [1] of the same molecule?
The value was “showed the most inhibition activity”.

What about the “inhibition activity, Ps. aeruginosa (in words)” value [2] of the same molecule?
Its value is “showed the most inhibition activity”.

And the “inhibition activity, Candida albicans (in words)” value [3]?
The value was “showed the most inhibition activity”.

What about the “inhibition activity, St. Aereus (in words)” value [4] of the same molecule?
Its value is “showed the most inhibition activity”.
